According to the kinase profiling compilation of Christmann-Franck et al. (2016):

Columns and labels:
Assay in all cases: radiometric filter-binding kinase assay, Kinase HotSpot
Conditions in all cases: compound 0.5 µM; ATP 10 µM
[1] = target: MUSK (human) (UniProt O15146)
[2] = target: TSSK2 (human) (UniProt Q96PF2)
[3] = target: MYLK2 (human) (UniProt Q9H1R3)
[4] = target: MAP3K10 (human) (UniProt Q02779)
[5] = target: MAP3K7 TAB1 (human) (UniProt O43318+Q15750)
[6] = target: FLT3 (human) (UniProt P36888)
[7] = target: PAK2 (human) (UniProt Q13177)
[8] = target: NEK1 (human) (UniProt Q96PY6)
[9] = target: ERBB4 (human) (UniProt Q15303)
[10] = target: CDK6 CCND3 (human) (UniProt P30281+Q00534)
[11] = target: NTRK1 (human) (UniProt P04629)
[12] = target: CDK1 CCNB1 (human) (UniProt P06493+P14635)
[13] = target: TNK2 (human) (UniProt Q07912)
[14] = target: HIPK1 (human) (UniProt Q86Z02)
[15] = target: MST1R (human) (UniProt Q04912)
[16] = target: TAOK3 (human) (UniProt Q9H2K8)
[17] = target: MAP2K2 (human) (UniProt P36507)
[18] = target: PDGFRB (human) (UniProt P09619)
[19] = target: RET (human) (UniProt P07949)
[20] = target: CAMK1D (human) (UniProt Q8IU85)
[21] = target: CHUK (human) (UniProt O15111)
[22] = target: BLK (human) (UniProt P51451)
[23] = target: TEK (human) (UniProt Q02763)
[24] = target: PRKCG (human) (UniProt P05129)
[25] = target: HIPK4 (human) (UniProt Q8NE63)
[26] = target: TSSK1B (human) (UniProt Q9BXA7)
[27] = target: ACVR1 (human) (UniProt Q04771)
[28] = target: JAK3 JH1 JH2 (human) (UniProt P52333)
[29] = target: IGF1R (human) (UniProt P08069)
[30] = target: RPS6KA2 KD1 KD2 (human) (UniProt Q15349)
[31] = target: GRK4 (human) (UniProt P32298)
[32] = target: PLK3 (human) (UniProt Q9H4B4)
[33] = target: MYLK (human) (UniProt Q15746)
[34] = target: MAPKAPK3 (human) (UniProt Q16644)
[35] = target: TYK2 JH1 catalytic (human) (UniProt P29597)
[36] = target: MAPK14 (human) (UniProt Q16539)
[37] = target: PAK3 (human) (UniProt O75914)
[38] = target: RPS6KA6 KD1 KD2 (human) (UniProt Q9UK32)
[39] = target: VRK1 (human) (UniProt Q99986)
[40] = target: KIT (human) (UniProt P10721)
[41] = target: FGFR4 (human) (UniProt P22455)

Sequence of MAPKAPK3 (human) (Q16644 whole entry, looked up): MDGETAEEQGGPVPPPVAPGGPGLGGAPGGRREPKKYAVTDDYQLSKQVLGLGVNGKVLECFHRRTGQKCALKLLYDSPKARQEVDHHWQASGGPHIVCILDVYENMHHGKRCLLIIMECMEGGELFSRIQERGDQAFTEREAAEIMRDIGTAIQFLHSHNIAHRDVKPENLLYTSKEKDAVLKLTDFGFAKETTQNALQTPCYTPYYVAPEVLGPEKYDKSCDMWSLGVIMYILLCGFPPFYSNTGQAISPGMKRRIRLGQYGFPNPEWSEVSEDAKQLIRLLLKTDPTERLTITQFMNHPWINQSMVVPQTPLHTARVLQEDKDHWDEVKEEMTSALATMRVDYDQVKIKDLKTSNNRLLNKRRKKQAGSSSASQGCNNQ
Sequence of VRK1 (human) (Q99986 whole entry, looked up): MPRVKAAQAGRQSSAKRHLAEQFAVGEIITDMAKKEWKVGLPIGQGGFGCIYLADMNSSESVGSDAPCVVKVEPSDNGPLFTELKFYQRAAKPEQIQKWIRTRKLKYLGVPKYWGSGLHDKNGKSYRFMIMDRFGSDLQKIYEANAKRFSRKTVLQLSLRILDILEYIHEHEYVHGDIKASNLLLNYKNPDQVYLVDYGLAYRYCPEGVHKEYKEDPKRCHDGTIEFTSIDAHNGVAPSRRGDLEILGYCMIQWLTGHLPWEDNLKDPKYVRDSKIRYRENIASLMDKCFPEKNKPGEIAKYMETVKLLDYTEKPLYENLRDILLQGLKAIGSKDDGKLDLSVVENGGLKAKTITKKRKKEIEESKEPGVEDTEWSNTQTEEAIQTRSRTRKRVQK
Sequence of PLK3 (human) (Q9H4B4 whole entry, looked up): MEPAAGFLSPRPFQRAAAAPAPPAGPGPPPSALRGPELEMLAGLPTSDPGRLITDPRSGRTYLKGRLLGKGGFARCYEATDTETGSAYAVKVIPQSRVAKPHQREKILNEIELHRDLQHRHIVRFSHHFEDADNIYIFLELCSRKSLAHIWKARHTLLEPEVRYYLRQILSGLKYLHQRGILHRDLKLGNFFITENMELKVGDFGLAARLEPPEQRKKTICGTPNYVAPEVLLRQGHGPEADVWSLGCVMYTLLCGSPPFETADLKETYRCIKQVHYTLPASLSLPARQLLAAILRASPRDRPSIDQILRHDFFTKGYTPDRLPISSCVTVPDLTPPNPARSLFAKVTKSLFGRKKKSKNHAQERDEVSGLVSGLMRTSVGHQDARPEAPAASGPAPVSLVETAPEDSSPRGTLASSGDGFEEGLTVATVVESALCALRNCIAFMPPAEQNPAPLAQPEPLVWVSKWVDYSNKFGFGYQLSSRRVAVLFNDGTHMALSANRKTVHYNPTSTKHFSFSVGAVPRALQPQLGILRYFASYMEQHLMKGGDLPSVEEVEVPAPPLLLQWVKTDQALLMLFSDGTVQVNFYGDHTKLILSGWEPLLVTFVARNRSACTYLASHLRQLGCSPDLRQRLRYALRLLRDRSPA
Sequence of RPS6KA6 KD1 KD2 (human) (Q9UK32 whole entry, looked up): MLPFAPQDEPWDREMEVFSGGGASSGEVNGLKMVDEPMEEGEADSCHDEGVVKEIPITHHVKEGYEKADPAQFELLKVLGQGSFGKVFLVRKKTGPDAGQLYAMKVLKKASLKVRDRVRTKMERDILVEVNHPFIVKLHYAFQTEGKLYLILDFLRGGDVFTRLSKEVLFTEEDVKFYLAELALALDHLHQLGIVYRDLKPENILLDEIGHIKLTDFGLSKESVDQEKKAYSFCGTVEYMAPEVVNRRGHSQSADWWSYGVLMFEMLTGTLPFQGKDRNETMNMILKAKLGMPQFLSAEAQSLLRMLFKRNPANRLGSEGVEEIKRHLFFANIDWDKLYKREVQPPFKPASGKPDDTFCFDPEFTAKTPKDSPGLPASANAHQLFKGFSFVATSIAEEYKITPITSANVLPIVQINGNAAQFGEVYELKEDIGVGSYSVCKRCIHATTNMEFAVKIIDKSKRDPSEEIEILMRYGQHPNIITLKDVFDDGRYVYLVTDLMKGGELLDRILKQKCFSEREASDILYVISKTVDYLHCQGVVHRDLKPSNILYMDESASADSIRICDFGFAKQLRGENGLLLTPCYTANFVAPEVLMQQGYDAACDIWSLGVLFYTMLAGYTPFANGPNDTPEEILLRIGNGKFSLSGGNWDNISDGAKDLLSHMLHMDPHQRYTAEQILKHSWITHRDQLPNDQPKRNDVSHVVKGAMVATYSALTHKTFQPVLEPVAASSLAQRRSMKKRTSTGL
Sequence of TAOK3 (human) (Q9H2K8 whole entry, looked up): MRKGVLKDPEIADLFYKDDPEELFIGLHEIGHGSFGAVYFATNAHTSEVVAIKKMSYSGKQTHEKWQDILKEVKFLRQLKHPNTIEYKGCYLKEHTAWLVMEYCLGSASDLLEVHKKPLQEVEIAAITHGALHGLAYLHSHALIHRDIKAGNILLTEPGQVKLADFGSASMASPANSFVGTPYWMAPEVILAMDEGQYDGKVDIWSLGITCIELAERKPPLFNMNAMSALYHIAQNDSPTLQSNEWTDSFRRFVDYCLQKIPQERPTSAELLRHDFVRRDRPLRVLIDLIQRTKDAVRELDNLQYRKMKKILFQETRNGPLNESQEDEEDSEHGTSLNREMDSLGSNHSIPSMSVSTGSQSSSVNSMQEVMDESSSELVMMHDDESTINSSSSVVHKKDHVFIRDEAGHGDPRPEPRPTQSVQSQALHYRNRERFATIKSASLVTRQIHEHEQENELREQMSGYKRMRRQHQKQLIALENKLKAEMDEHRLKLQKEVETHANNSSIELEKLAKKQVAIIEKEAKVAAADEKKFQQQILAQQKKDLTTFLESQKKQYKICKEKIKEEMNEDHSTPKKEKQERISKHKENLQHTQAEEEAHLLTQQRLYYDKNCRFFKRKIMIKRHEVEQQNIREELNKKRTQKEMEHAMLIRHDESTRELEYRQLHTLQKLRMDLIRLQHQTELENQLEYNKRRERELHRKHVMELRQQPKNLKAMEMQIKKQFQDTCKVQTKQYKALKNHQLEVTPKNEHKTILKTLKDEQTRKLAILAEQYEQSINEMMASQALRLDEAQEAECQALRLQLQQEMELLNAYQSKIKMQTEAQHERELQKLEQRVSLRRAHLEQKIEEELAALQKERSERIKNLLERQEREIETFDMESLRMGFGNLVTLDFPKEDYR
Sequence of FLT3 (human) (P36888 whole entry, looked up): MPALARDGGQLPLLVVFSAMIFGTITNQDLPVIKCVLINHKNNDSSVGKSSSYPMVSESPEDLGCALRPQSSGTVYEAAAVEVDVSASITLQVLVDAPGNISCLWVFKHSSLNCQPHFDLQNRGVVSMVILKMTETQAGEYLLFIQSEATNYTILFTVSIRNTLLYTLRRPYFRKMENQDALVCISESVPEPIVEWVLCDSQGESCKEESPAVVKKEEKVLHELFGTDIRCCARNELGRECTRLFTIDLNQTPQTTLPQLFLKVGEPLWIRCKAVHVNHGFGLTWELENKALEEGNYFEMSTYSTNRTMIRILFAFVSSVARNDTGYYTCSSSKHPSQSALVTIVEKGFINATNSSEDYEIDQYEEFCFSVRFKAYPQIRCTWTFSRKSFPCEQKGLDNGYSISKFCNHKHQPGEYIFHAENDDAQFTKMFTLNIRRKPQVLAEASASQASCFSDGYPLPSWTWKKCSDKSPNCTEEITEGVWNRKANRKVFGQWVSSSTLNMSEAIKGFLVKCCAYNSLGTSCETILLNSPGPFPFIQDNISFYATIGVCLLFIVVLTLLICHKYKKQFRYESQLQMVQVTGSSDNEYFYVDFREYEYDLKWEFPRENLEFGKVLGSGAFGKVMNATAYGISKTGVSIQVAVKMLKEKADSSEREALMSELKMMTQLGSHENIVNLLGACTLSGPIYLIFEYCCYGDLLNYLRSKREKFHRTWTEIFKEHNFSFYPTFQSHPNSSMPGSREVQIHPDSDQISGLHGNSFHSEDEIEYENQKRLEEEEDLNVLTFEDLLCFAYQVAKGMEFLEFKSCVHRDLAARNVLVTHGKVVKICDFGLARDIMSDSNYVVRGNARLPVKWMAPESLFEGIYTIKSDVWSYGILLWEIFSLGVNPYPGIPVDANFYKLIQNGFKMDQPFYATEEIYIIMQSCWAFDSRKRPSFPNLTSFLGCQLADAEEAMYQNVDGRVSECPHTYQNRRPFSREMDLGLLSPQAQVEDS
Sequence of MAP3K10 (human) (Q02779 whole entry, looked up): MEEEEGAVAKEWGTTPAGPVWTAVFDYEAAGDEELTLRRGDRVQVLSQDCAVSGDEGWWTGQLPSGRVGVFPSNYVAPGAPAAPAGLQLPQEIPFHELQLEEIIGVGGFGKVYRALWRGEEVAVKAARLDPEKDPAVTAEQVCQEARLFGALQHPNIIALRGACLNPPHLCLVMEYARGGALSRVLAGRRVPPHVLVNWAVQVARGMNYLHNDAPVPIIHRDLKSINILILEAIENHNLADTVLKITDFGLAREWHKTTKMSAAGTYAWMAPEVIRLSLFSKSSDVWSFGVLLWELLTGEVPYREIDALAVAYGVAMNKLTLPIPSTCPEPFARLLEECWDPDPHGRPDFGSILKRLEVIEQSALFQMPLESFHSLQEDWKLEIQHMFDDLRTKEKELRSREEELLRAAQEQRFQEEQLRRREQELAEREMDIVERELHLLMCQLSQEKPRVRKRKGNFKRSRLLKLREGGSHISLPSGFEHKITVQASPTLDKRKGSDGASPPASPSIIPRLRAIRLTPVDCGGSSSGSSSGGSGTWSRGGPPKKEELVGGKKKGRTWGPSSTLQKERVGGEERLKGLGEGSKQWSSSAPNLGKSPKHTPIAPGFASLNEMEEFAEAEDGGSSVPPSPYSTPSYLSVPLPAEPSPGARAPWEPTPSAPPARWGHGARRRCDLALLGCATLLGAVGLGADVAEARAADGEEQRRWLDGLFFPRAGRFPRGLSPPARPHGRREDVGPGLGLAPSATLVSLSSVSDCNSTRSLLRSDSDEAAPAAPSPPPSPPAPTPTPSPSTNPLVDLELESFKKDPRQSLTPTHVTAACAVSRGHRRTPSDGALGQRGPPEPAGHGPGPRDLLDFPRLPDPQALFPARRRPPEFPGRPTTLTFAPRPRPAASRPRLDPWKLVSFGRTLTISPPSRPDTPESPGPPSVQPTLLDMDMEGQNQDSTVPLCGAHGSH

COc1ccc(S(=O)(=O)N(CCO)c2ccccc2CN(C)C/C=C/c2ccc(Cl)cc2)cc1 gave a residual activity [1] of 94.7%, a residual activity [2] of 107% and a residual activity [3] of 97.8%. The residual activity [4] was 92.4%, the residual activity [5] was 94.7% and the residual activity [6] was 98.4%. It also gave a residual activity [7] of 101%, a residual activity [8] of 104% and a residual activity [9] of 104%. It also gave a residual activity [10] of 102%, a residual activity [11] of 110% and a residual activity [12] of 105%. The residual activity [13] was 94.1%, the residual activity [14] was 106% and the residual activity [15] was 95.4%. It also gave a residual activity [16] of 91.2%, a residual activity [17] of 100% and a residual activity [18] of 104%. It also gave a residual activity [19] of 103%, a residual activity [20] of 103% and a residual activity [21] of 92.7%. It also gave a residual activity [22] of 103%, a residual activity [23] of 105% and a residual activity [24] of 95.1%. For the same compound, the residual activity [25] was 101%, the residual activity [26] was 103% and the residual activity [27] was 90.6%. It also gave a residual activity [28] of 97%, a residual activity [29] of 103% and a residual activity [30] of 99.2%. It also gave a residual activity [31] of 94%, a residual activity [32] of 99.4% and a residual activity [33] of 98.4%. For the same compound, the residual activity [34] was 101%, the residual activity [35] was 110% and the residual activity [36] was 95.1%. For the same compound, the residual activity [37] was 102%, the residual activity [38] was 102% and the residual activity [39] was 96.4%. The residual activity [40] was 103% and the residual activity [41] was 98.3%.

For Cc1cccc(-c2nc(C(C)(C)C)[nH]c2-c2ccc3c(c2)OCO3)n1, the residual activity [1] was 99.1%, the residual activity [2] was 92.7% and the residual activity [3] was 99.2%. It also gave a residual activity [4] of 99.3%, a residual activity [5] of 96.3% and a residual activity [6] of 96.2%. The residual activity [7] was 72.4%, the residual activity [8] was 78.9% and the residual activity [9] was 83.1%. For the same compound, the residual activity [10] was 98%, the residual activity [11] was 96.5% and the residual activity [12] was 100%. For the same compound, the residual activity [13] was 99.3%, the residual activity [14] was 101% and the residual activity [15] was 101%. The residual activity [16] was 102%, the residual activity [17] was 108% and the residual activity [18] was 106%. The residual activity [19] was 103%, the residual activity [20] was 102% and the residual activity [21] was 108%. For the same compound, the residual activity [22] was 98.5%, the residual activity [23] was 95.2% and the residual activity [24] was 107%. The residual activity [25] was 107%, the residual activity [26] was 103% and the residual activity [27] was 96.4%. The residual activity [28] was 92.6%, the residual activity [29] was 96.2% and the residual activity [30] was 96.4%. For the same compound, the residual activity [31] was 101%, the residual activity [32] was 95.6% and the residual activity [33] was 105%. It also gave a residual activity [34] of 94.1%, a residual activity [35] of 102% and a residual activity [36] of 89.7%. The residual activity [37] was 95.9%, the residual activity [38] was 107% and the residual activity [39] was 97.5%. The residual activity [40] was 93.6% and the residual activity [41] was 73.8%.

Compound COc1cc2ncnc(Nc3ccc(OCc4ccccc4)cc3)c2cc1OC has a residual activity [1] of 99.3%, a residual activity [2] of 104% and a residual activity [3] of 97.5%. The residual activity [4] was 94.9%, the residual activity [5] was 101% and the residual activity [6] was 56.4%. The residual activity [7] was 102%, the residual activity [8] was 104% and the residual activity [9] was 9.19%. It also gave a residual activity [10] of 97.8%, a residual activity [11] of 97.1% and a residual activity [12] of 89.9%. For the same compound, the residual activity [13] was 53.1%, the residual activity [14] was 104% and the residual activity [15] was 106%. For the same compound, the residual activity [16] was 91.7%, the residual activity [17] was 98.5% and the residual activity [18] was 93%. For the same compound, the residual activity [19] was 89.1%, the residual activity [20] was 104% and the residual activity [21] was 95.1%. The residual activity [22] was 88.2%, the residual activity [23] was 97.9% and the residual activity [24] was 98.5%. For the same compound, the residual activity [25] was 100%, the residual activity [26] was 106% and the residual activity [27] was 101%. It also gave a residual activity [28] of 108%, a residual activity [29] of 102% and a residual activity [30] of 100%. It also gave a residual activity [31] of 106%, a residual activity [32] of 98% and a residual activity [33] of 95%. It also gave a residual activity [34] of 102%, a residual activity [35] of 103% and a residual activity [36] of 101%. It also gave a residual activity [37] of 97.7%, a residual activity [38] of 95.9% and a residual activity [39] of 89%. It also gave a residual activity [40] of 63% and a residual activity [41] of 106%.

Work on COc1ccc2c(c1)c(C1=C(c3c[nH]c4ccccc34)C(=O)NC1=O)cn2CCCN(C)C yielded a residual activity [1] of 53.5%, a residual activity [2] of 85.5% and a residual activity [3] of 96%. For the same compound, the residual activity [4] was 83.4%, the residual activity [5] was 102% and the residual activity [6] was 23.2%. It also gave a residual activity [7] of 108%, a residual activity [8] of 94.7% and a residual activity [9] of 93.4%. It also gave a residual activity [10] of 85%, a residual activity [11] of 83.1% and a residual activity [12] of 94.4%. The residual activity [13] was 77.9%, the residual activity [14] was 77.7% and the residual activity [15] was 91.3%. The residual activity [16] was 78.2%, the residual activity [17] was 103% and the residual activity [18] was 75.8%. The residual activity [19] was 79.9%, the residual activity [20] was 73.3% and the residual activity [21] was 96.5%. It also gave a residual activity [22] of 78.8%, a residual activity [23] of 102% and a residual activity [24] of 54%. The residual activity [25] was 101%, the residual activity [26] was 80.3% and the residual activity [27] was 98%. For the same compound, the residual activity [28] was 138%, the residual activity [29] was 115% and the residual activity [30] was 5.46%. The residual activity [31] was 92.8%, the residual activity [32] was 93% and the residual activity [33] was 66.9%. The residual activity [34] was 92.3%, the residual activity [35] was 126% and the residual activity [36] was 103%. For the same compound, the residual activity [37] was 105%, the residual activity [38] was 4.52% and the residual activity [39] was 76.7%. For the same compound, the residual activity [40] was 88.8% and the residual activity [41] was 79.2%.
